“Also recorded” adds a separate entry of the source.
Key:
[1] = system: AR; assay: ARE reporter gene assay (5xARE-tk-luc) in 22Rv1 cells; type: cell-based, human
Experimental: Transient transfection and reporter gene assays were performed as previously described^49 with the following modifications. ARE reporter gene assays were performed by transfecting 22Rv1 cells with 5×ARE-tk-luc, pcDNA3.1-hAR and pCMV-β-gal for normalization. For transfection with constructs omitted for specific gene expression, corresponding empty vectors were used to ensure equal amount of total DNA used. Briefly, 22Rv1 cells seeded in 96-well plates in hormone-deprived medium supplemented with 10% cds-FBS (Hyclone) were transfected with lipofectamine 2000 (Life technology, Carlsbad, Calif., USA) and the indicated plasmid DNA. Cells were then treated at 12 hours after transfection with 3 nm R1881, indicated concentrations of RORγ antagonists or ENZ for another 24 hours before harvested for β-gal and luciferase assays. For RORE reporter gene assays, 4×AR-RORE-tk-luc was constructed by inserting four copies of the newly identified AR-RORE TTCTGGGTCA (SEQ ID NO: 1) into tk-luciferase reporter vector. AR-RORE mutant form (AR-RORE mut) contains sequences mutated from TTCTGGGTCA (SEQ ID NO: 1) to TTCTGAACGA (SEQ ID NO: 2). […] The luciferase and β-galactosidase were then analyzed with a Luciferase Assay Substrate (Promega) and Luminescent β-galactosidase Detection Kit II (Clontech). […]

[2] = system: AR-positive PCa cells; assay: Prostate cancer cell growth and survival (cell viability / cell growth); type: cell-based, human; details: for inhibition of AR-positive PCa cell growth and survival: different cell line models; for growth-inhibitory effect in prostate cancer cells: cell viability, 4 d (FIGS. 7B, 7C)
Experimental: (§1) For cell viability, cells were seeded in 96-well plates at 1500-2500 cells per well (optimum density for growth) in a total volume of 100 μl media. Serially diluted compounds in […] of media were added to the cells 12 hours later. After 4 days of incubation, Cell-Titer GLO reagents (Promega) were added and luminescence was measured on GLOMAX microplate luminometer (Promega), according to the manufacturer's instructions. All experimental points were set up as sextuplicate as biological replication and the entire experiments were repeated three times. The data are presented as percentage of viable cells with vehicle treated cells set as 100. The estimated in vitro IC50 values were calculated using GraphPad Prism 6 software.
(§2) For apoptosis, Terminal deoxynucleotidyl transferase-mediated dUTP nick end labeling (TUNEL) was performed by using in situ cell death detection kit (Roche) as previously described^56. The results are expressed as a percentage of apoptotic cell number/total cell number. Caspase-3/7 activity was measured using a luminescent caspase-Glo 3/7 assay kit (Promega Corporation, Madison, USA) following the manufacturer's instructions. For cell growth, cells were seeded in 6-well plates at 2×10^5 per well and treated as indicated. Total viable cell numbers were counted using a Coulter cell counter. For colony formation, 800 cells were seeded in a well of 6-well plates and cultured for 14 days with the medium changed every 3 days. When the cell clone grew visible, the medium was removed and the cells were fixed with […] formalin for 10 minutes. Then the plates were washed with PBS for two times and the cell colonies were stained with 0.2% crystal violet (in 10% formalin) for 15 minutes. The numbers of cell colonies were counted after washed 5 times by PBS. The above assays were performed in triplicates and the entire experiments were repeated three times.

[3] = system: AR-negative PCa cells; assay: Prostate cancer cell growth and survival, AR-negative cells; type: cell-based, human
Experimental: as §1, §2

[4] = system: MCF-7-TamR cell line; assay: Growth of tamoxifen-resistant breast cancer cells; type: cell-based, human
Experimental: (§3) Using a CellTiter-GLO assay, the viability of cells of different cancer types was measured after treatment with different concentrations of RORγ small molecule inhibitors for 4 days.

[5] = system: AR and AR-V7; assay: AR and AR variant expression (immunoblotting, qRT-PCR); type: cell-based, human
Experimental: Total RNA was isolated from cells in 6-well or 10-cm plates or from xenograft tumors, and the cDNA was prepared, amplified and measured in the presence of SYBR as previously^49. Briefly, the fluorescent values were collected and a melting curve analysis was performed. Fold difference was calculated as described previously^49. The experiments were performed at least three times with data presented as mean values±s.d. Cell lysates were analyzed by immunoblotting with antibodies specifically recognizing RORγ, AR, AR-V7 and the indicated proteins. The PCR primers and all the antibodies used in this study are described in the Tables 3 and 4.

[6] = system: 22Rv1 xenografts; assay: 22Rv1 xenograft tumor growth; type: in vivo, mice
Experimental: Four-week-old male SCID C.B17 mice (for C4-2B and VCaP) or BALB/c nu/nu athymic mice (for 22Rv11 and PC-3) were purchased from Harlan Inc. For establishing tumors, 2×10^6 cells were suspended in total of 100 μL PBS/Matrigel (1:1) and implanted subcutaneously into the dorsal flank on both sides of the mice. Animal group size of six or more was estimated to have a high statistic power, based on power calculation (http://www.biomath.info/power/) and previous studies involving the same xenograft models^34,68. When the tumor volume was approximately 80 mm^3, the mice were randomized and then treated intraperitoneally (i.p.) with 100 μl of either vehicle or RORγ antagonists SR2211, XY011/8k (in a formulation of 15% Cremophor EL, Calbiochem, 82.5% PBS, and 2.5% DMSO) for five times per week. Tumor growth was monitored by calipers with volume calculated using the equation: (π/6 (length×width2)). Body weight during the course of the study was also monitored. At the end of the studies mice were killed and tumors were dissected and weighed. Additionally, prostate, seminal vesicle, testis, kidney, heart, lung, liver, epididymal fat pad and spleen were harvested and weighed. To assess the effect of combining RORγ antagonists and ENZ on the growth of castrated-resistant VCaP xenografts (CRPC-VCaP), first, SCID C.B17 mice were injected with VCaP cells as above to establish the tumors. Then, mice bearing tumors of approximately 180 mm^3 were surgically castrated. They were then observed for tumor regression. Once tumors grew back to the pre-castration size, mice were randomized and treated with vehicle, 5 mg kg^−1 SR2211, 10 mg […] ENZ or a combination of 5 mg kg^−1 SR2211 and 10 mg kg^−1 ENZ. ENZ was given by oral gavage as previously described^68 and SR2211 was administered i.p as above. Mice were excluded from the study if bearing no tumor or tumor with size twice larger or smaller than the mean, at the time of randomization.

[7] = system: breast cancer cells; assay: CellTiter-GLO viability, breast cancer cells; type: cell-based, human; details: for growth and survival of breast cancer cells: cells having different major molecular features, 4 days
Experimental: as §1, §3

[8] = system: OVCAR420, T24, ECC1, HepG2, Hep3B, T98G, SUDHL4, SUDHL6, HCT116 and docetaxel-resistant C4-2B cells; assay: CellTiter-GLO viability, cells of other cancer types; type: cell-based, human; details: ovarian OVCAR420, bladder T24, endometrial ECC1, liver HepG2 and Hep3B, glioblastoma T98G, DLBCL SUDHL4 and SUDHL6, colon HCT116, docetaxel-resistant C4-2B; 4 days
Experimental: as §1, §3

[9] = system: TNBC cells including MDA-MB468, MDA-MB231, BT20, SUM149, and HCC1937; assay: CellTiter-GLO viability, triple-negative breast cancer cells; type: cell-based; details: Homo sapiens, 96 h, treated for 4 days
Experimental: as §1, §3

[10] = system: ER-positive cells, such as MCF-7 and T47D; assay: CellTiter-GLO viability, ER-positive breast cancer cells; type: cell-based; details: Homo sapiens, 96 h; ER-positive cells MCF-7 and T47D, treated for 4 days
Experimental: as §1, §3

[11] = system: HER2-positive cells, such as SKBR3 and HCC1954; assay: CellTiter-GLO viability, HER2-positive breast cancer cells; type: cell-based, human; details: SKBR3 and HCC1954, 4 days
Experimental: as §1, §3

[12] = system: lung cancer cells; assay: CellTiter-GLO viability, lung cancer cells; type: cell-based, human; details: NSCLC cells: KRAS mutant (A427, Calu1, A549, H23, H358), BRAF mutant (H1666), EGFR mutant (HCC827, PC-9), Erlotinib-resistant (A427, H1975); 4 days
Experimental: as §1, §3

In the case of `C[C@]1(O)CC[C@H]2[C@@H]3CCC4=CC(=O)CCC4=C3C=C[C@@]21C` [R1881], the “response of multimerized ARE-driven reporter” value [1] is reported as “activated”.

For `CCN1C(=O)c2cccc3c(S(=O)(=O)Nc4ccc(/N=N/c5ccccc5)cc4)ccc1c23` [7k, (E)-1-ethyl-2-oxo-N-(4′-(phenyldiazenyl)phenyl)-1,2-dihydrobenzo[cd]indole-6-sulfonamide], the “inhibition of AR-positive PCa cell growth and survival” value [2] was “potent inhibition of AR-positive PCa cell growth and survival” and the “inhibition of cell growth and survival in AR-negative cells” value (shortened to “inhibition of cell growth and survival”) [3] was “not in the AR-negative cells”.

For `CC/C(=C(\c1ccccc1)c1ccc(OCCN(C)C)cc1)c1ccccc1` [tamoxifen], the “growth inhibitory effect of tamoxifen alone” value ([4]; MCF-7-TamR, 1 μM of 4(OH)-tamoxifen) was “did not show any inhibitory effect” and the “growth inhibitory effect of tamoxifen in combination with RORγ inhibitors” value ([4]; tamoxifen-resistant breast cancer cells, combined with SR2211 or GSK805) was “synergistic growth inhibitory effect”.

`CC(=O)N1CCN(Cc2ccc(-c3ccc(C(O)(C(F)(F)F)C(F)(F)F)cc3)cc2)CC1.Cl` [SR1555, 1-(4-((4′-(1,1,1,3,3,3-hexafluoro-2-hydroxypropan-2-yl)-[1,1′-biphenyl]-4-yl)methyl)piperazin-1-yl)ethanone, monohydrochloride] was tested, and the “growth-inhibitory effect in prostate cancer cells” value [2] was “significant inhibitory effects with slightly lower potencies”, the “inhibition of AR-positive PCa cell growth and survival” value [2] was “potent inhibition of AR-positive PCa cell growth and survival” and the “inhibition of cell growth and survival” value [3] was “not in the AR-negative cells”.

In the case of `CCN1C(=O)c2cccc3c(S(=O)(=O)Nc4ccc(OC)c(OC)c4)ccc1c23` [XY011, N-(3′,4′-dimethoxyphenyl)-1-ethyl-2-oxo-1,2-dihydrobenzo[cd]indole-6-sulfonamide], the “inhibition of AR-positive PCa cell growth and survival” value [2] is reported as “potent inhibition of AR-positive PCa cell growth and survival”, the “inhibition of cell growth and survival” value [3] is reported as “not in the AR-negative cells” and the “expression of AR and AR-V7” value ([5]; C4-2B and VCaP cells, 72 h) is reported as “potently inhibited the expression of AR and AR-V7 in a dose-dependent manner”. The tumor growth inhibition ([6]; XY011 20 mg/kg, i.p., 5 times a week (FIG. 23B)) was “Strong tumor growth inhibition” and the “growth of xenograft tumors” value ([6]; nude mice, SR2211 5 mg/kg i.p., 8k/E11 10 and 20 mg/kg i.p., five times per week (FIG. 3A)) was “strongly inhibited growth of xenograft tumors”.

`CC(=O)N1CCN(c2ccc(CN3[C@@H](C)CC[C@H](c4ccccc4)S3(=O)=O)c(F)c2)CC1` [GNE3500] was tested, and the “growth and survival of different breast cancer cells” value ([7]; HER2-positive HCC1954, TNBC MDA-MB468 and MDA-MB231, radiation-resistant MCF-7-C6) was “significant inhibition”.

`NS(=O)(=O)c1ccc(CC(=O)Nc2cc(Cl)c(-c3ccccc3OC(F)(F)F)c(Cl)c2)cc1` [GSK9b, N-(2,6-dichloro-2′-trifluoromethoxy)-[1,1′-biphenyl]-4-yl-2-(4-sulfamoylphenyl)acetamide] was tested, and the “growth and survival of breast cancer cells” value [7] was “strongly inhibited the growth and survival of breast cancer cells; also recorded: slightly less effective than GSK805” and the “growth and survival of cancer cells of other types” value [8] was “significant inhibition of the growth and survival”.

With `CCS(=O)(=O)c1ccc(CC(=O)Nc2cc(Cl)c(-c3ccccc3OC(F)(F)F)c(Cl)c2)cc1` [GSK805, N-(3,5-Dichloro-4-(2-(trifluoromethoxy)phenyl)phenyl)-2-(4-ethylsulfonylphenyl)acetamide] the IC50 [9] was 1 to 10 µM, the IC50 [10] was greater than 10 µM and the “inhibition of HER2-positive cells” value [11] was “relatively strong inhibition”. For the same compound, the “growth and survival of breast cancer cells” value [7] was “strongly inhibited the growth and survival of breast cancer cells”, the “sensitization of tamoxifen-resistant breast cancer cells to tamoxifen” value ([4]; MCF-7 TamR cells, in combination with tamoxifen) was “able to sensitize tamoxifen-resistant breast cancer cells to tamoxifen; also recorded: sensitized MCF-7 TamR cells to tamoxifen” and the “growth and survival of lung cancer cells” value [12] was “strongly inhibited the growth and survival of lung cancer cells”. The “growth and survival of cancer cells of other types” value [8] was “significant inhibition of the growth and survival”.

In the case of SR3335, the “growth-inhibitory effect in prostate cancer cells” value [2] is reported as “did not display any significant effect” and the “inhibition of AR-positive PCa cell growth and survival” value [2] is reported as “did not show any significant growth inhibition”.

`C[C@]12CC[C@H](O)C[C@H]1CC[C@@H]1[C@@H]2CC[C@]2(C)[C@@H](c3ccc(=O)oc3)CC[C@]12O` [bufalin] was tested, and the AR expression ([5]; C4-2B cells treated with bufalin) was “dose-dependent inhibition of AR expression”.

`CCN1C(=O)c2cccc3c(S(=O)(=O)Nc4ccc5ccncc5c4)ccc1c23` [6f, 1-Ethyl-N-(isoquinolin-7′-yl)-2-oxo-1,2-dihydrobenzo[cd]indole-6-sulfonamide] was tested, and the “inhibition of AR-positive PCa cell growth and survival” value [2] was “potent inhibition of AR-positive PCa cell growth and survival” and the “inhibition of cell growth and survival” value [3] was “not in the AR-negative cells”.

From patent publication US10959984B2, “Methods for treating cancer with RORγ inhibitors” (THE REGENTS OF THE UNIVERSITY OF CALIFORNIA, priority 2015, dated 2021)
